In US7041677B2, “Use of monochloroflosequinan in the treatment of sexual dysfunction” (R.T. Alamo Ventures I, LLC, priority 2002, dated 2006):

Experiments:
PDE5 = biological target: T1, PDE5 (Homo sapiens, UniProt O76074); assay: PDE5 enzyme inhibition assay; format: biochemical; conditions: 25° C., 1% DMSO vehicle
T1 construct: PDE5 partially purified from human platelets was used; from tissue; host or cells: human platelets
Description: (§1) In this example, a racemic mixture of monochloroflosequinan and the sulfone derivative of monochloroflosequinan were independently subjected to biochemical enzyme assays to determine their respective percent inhibition of a variety of phosphodiesterases (PDE1-PDE6). The methods used have been adapted from those described in the scientific literature, see Hidaka and Asano “Human blood platelet 3′:5′ cyclic nucleotide phosphodiesterase. Isolation of low-Km and high Km phosphodiesterase.” Biochem. Biophys. […] Unhydrolyzed cAMP was bound to AGI-X2 resin, and the remaining [^3H]adenosine in the aqueous phase was quantitated by scintillation counting. • PDE2: PDE2 partially purified from human platelets was used. […] Unhydrolyzed cAMP was bound to AGI-X2 resin, and the remaining [^3H]adenosine in the aqueous phase was quantitated by scintillation counting. • PDE3: PDE3 partially purified from human platelets was used. […] Unhydrolyzed cAMP was bound to AGI-X2 resin, and the remaining [^3H]adenosine in the aqueous phase was quantitated by scintillation counting. • PDE4: PDE4 partially purified from human U-937 pronocytic cells was used. […] Unhydrolyzed cAMP was bound to AGI-X2 resin, and the remaining [^3H]adenosine in the aqueous phase was quantitated by scintillation counting. • PDE5: PDE5 partially purified from human platelets was used. […]

[1] = Plasma levels following oral administration; format: in vivo
PDE4 = PDE4 enzyme inhibition assay; format: biochemical, human; conditions: 200 μM, 25° C., 1% DMSO vehicle
Description: as §1

In the case of Cn1cc([S@+]([O-])CCl)c(=O)c2ccc(F)cc21 (single isomer, unassigned) [(+)-enantiomer of monochloroflosequinan], the “inhibition of PDE5” value (PDE5; 200 μM) is reported as “greater than 50%”, the “time of peak plasma concentrations” value ([1]; following oral administration) is reported as 1 to 2 h and the “time of peak metabolite plasma levels” value ([1]; following oral dosage) is reported as “about seven”.

With Cn1cc([S@@+]([O-])CCl)c(=O)c2ccc(F)cc21 (single isomer, unassigned) [(−)-enantiomer of monochloroflosequinan] the “inhibition of PDE4” value (PDE4) was “greater than 50%”.

With Cn1cc([S+]([O-])C(Cl)Cl)c(=O)c2ccc(F)cc21 (centres unmarked) [dichloroflosequinan, 3-dichloromethylsulfinyl-7-fluoro-1-methyl-4-quinolone] the “inhibition of PDE5” value (PDE5; varying concentrations) was “greater than 50%”.
